What was measured:
[1] = test system: HCT-116; experiment: Antiproliferative activity against human HCT116 cell line; type: functional
[2] = test system: A549; experiment: Antiproliferative activity against human A549 cell line; type: functional

Row | GI50 [1] | GI50 [2] | Structure (SMILES)
1 | 1.9 nM | 19.2 nM | COC1=C(C)C(=O)C2=C(C1=O)[C@@H]1[C@@H]3CC4=C(C(=O)C(OC)=C(C)C4=O)[C@H](COC(C)=O)N3[C@@H](O)[C@H](C2)N1C
2 | 1400 nM | 10100 nM | C/C=C(/C)C(=O)OC[C@H]1C2=C(C[C@@H]3[C@H]4C5=C(C[C@@H](C(=O)N31)N4C)C(=O)C(C)=C(OC)C5=O)C(=O)C(C)=C(OC)C2=O [3-EPI-RENIERAMYCIN G]
3 | 610 nM | 4640 nM | COC1=C(C)C(=O)C2=C(C1=O)[C@@H]1[C@H]3CC4=C(C(=O)C(OC)=C(C)C4=O)[C@H](COC(C)=O)N3[C@@H](O)[C@H](C2)N1C
4 | 3870 nM | 12900 nM | C/C=C(/C)C(=O)OC[C@H]1C2=C(C[C@H]3[C@H]4C5=C(C[C@@H](C(=O)N13)N4C)C(=O)C(C)=C(OC)C5=O)C(=O)C(C)=C(OC)C2=O [(-)-RENIERAMYCIN G]
